Here are results for two molecules from patent US10399949B2, “NK1 receptor antagonist” (KISSEI PHARMACEUTICAL CO., LTD., priority 2015, dated 2019).

Data set [1] addresses T1, human NK1 receptor (Homo sapiens, UniProt P25103).
T1 construct: expressed in transfected cells; host or cells: 293T cells (RIKEN), transient transfection with pcDNA3.1(-) plasmid
In words: Inhibitory effect on human NK1 receptor (substance P-induced increase in intracellular calcium concentration). The note with it: HEK-293T; substance P 0.1 μM; compound 1 μM; human NK1 receptor-expressing 293T cells; vehicle = 100%; read-out: SPRR (%) (Substance P-Response Remaining, intracellular calcium concentration). In kind it is cell-based. Here is the method: Inhibitory Effect on Human NK1 Receptor
(1) Preparation of Human NK1 Receptor-Expressing Cells
Human NK1 receptor-expressing cells were prepared by the same methods as those described in 2-3 and 2-4 of Test Example 1.
(2) Study on Inhibitory Effect on Increase in Intracellular Calcium Concentration
The human NK1 receptor-expressing cells were washed with 300 μL/well of a washing solution (20 mM HEPES/Hanks Balanced Salt Solution (HBSS) pH7.3). A fluorescent calcium indicator (Fluo-4 Direct Calcium Assay Kit, Life Technologies, containing 0.42 mM probenecid and 0.1% bovine serum albumin, prepared according to the protocol of the product) was added to the wells at 150 μL/well, and the plate was incubated at 37° C. for 30 minutes in an incubator. Then, DMSO solutions of a test compound, which were prepared at an 80-time higher concentration using 100% dimethyl sulfoxide (DMSO), were added to the wells at 2.5 μL/well (final concentrations of 0.1, 1 and 10 μM), and the solutions were mixed. Then, the plate was further incubated at 37° C. for 30 minutes in an incubator. After 30 minutes, the intracellular calcium concentrations were measured immediately.
The intracellular calcium concentrations were each measured as a fluorescent signal using FDSS® 7000 (Hamamatsu Photonics). A substance P (Peptide Institute, Inc.) solution which was prepared at 0.4 μM or 4 μM using an assay buffer (20 mM HEPES/Hanks Balanced Salt Solution (HBSS) pH 7.3 containing 0.1% bovine serum albumin) was added automatically to each well at 50 μL/well (final concentration of 0.1 or 1 μM) 10 seconds after starting reading, and the fluorescent signal was measured up to 120 seconds.
The intracellular calcium concentration (%) of the cells to which a test compound was added was calculated by the equation below, where the fluorescent signal of the group to which the vehicle (DMSO) was added was regarded as 100%, and the fluorescent signal before the addition of substance P was regarded as 0%. Intracellular calcium concentration (%)=(Fluorescent signal of test compound addition group)/(Fluorescent signal of vehicle addition group)×100
The intracellular calcium concentration (%) calculated was regarded as the remaining agonist activity of substance P (Substance P-Response Remaining: SPRR). In the table, Ex. No. means the Example number. SPRR (%) means the value obtained when the concentration of substance P was 0.1 μM and the concentration of the compound was 1 μM.

Data set [2] deals with T1, human NK1 receptor. Briefly: Affinity for human NK1 receptor (125I-substance P receptor binding test, membrane fraction). The conditions noted are these: membrane fraction of human NK1 receptor-expressing 293T cells, room temperature 60 minutes, read-out: pIC50 (inverse logarithm of the concentration required for 50% inhibition of 125I-substance P binding) (converted). Here is the method:
Affinity for Human NK1 Receptor
(3) Measurement of Binding Affinity to Human NK1 Receptor
(3-1) Preparation of Membrane Fraction from Human NK1 Receptor-Expressing Cells
Human NK1 receptor-expressing cells were prepared in a 175 cm^2 culture flask (Nippon Becton Dickinson). The formation of a complex of the human NK1 receptor expression plasmid and Lipofectamine 2000 was performed by calculating the culture area ratio and increasing the scale of the method described in the above 2-4 by the ratio. The human NK1 receptor-expressing cells were collected in a buffer solution for the membrane fraction preparation (50 mM Tris (Wako Pure Chemical), 120 mM sodium chloride (Wako Pure Chemical Industries), 5 mM potassium chloride (Wako Pure Chemical Industries), 1 mM ethylenediaminetetraacetic acid (Sigma), 0.002 mg/mL chymostatin (Peptide Institute), 0.04 mg/bacitracin (Wako Pure Chemical Industries), 0.005 mg/mL phosphoramidon (Peptide Institute) and 0.5 mM phenylmethylsulfonyl fluoride (Wako Pure Chemical Industries), pH7.4) and centrifuged at 1,880 g for 10 minutes, and the cell sediment was suspended in the buffer solution for the membrane fraction preparation. After freezing and thawing the cells once, the cells were homogenized using a Dounce-type homogenizer (cooled on ice, 1000 rpm, 20 times). The homogenized cell suspension was centrifuged at 20,000 rpm for 10 minutes, and the supernatant was removed to obtain cell sediment. The cell sediment was suspended again in the buffer solution for the membrane fraction preparation and homogenized using a Dounce-type homogenizer (cooled on ice, 1000 rpm, 30 times). The cell suspension was centrifuged at 20,000 rpm for 10 minutes, and the supernatant was removed to obtain cell sediment. The same homogenization and centrifugation were repeated again, and final cell sediment was obtained. The final cell sediment was suspended in a buffer solution for the receptor binding test (50 mM Tris (Wako Pure Chemical Industries), 3 mM manganese chloride (Wako Pure Chemical Industries), 0.002 mg/mL chymostatin (Peptide Institute), 0.04 mg/bacitracin (Wako Pure Chemical Industries) and 0.02% bovine serum albumin (Sigma), pH 7.4), and the protein concentration was measured using BCA Protein Assay Kit (Pierce).
(3-2) Receptor Binding Test
The buffer solution for the receptor binding test was dispensed to the wells of a 96-well assay plate (Greiner) at 22.5 μL/well. DMSO solutions of a test compound, which were prepared at an 80-time higher concentration using 100% dimethyl sulfoxide (DMSO), were added to the wells at 2.5 μL/well (final concentrations of 1 nM to 100 nM), and the solutions were mixed. As a radiolabeled ligand, ^125I-substance P (Substance P, [^125I]Tyr^8-, PerkinElmer) was used. ^125I-substance P was diluted with the buffer solution for the receptor binding test to a concentration resulting in […] and added to the 96-well assay plate, and the solutions were mixed. The membrane fraction prepared from the human NK1 receptor-expressing cells was diluted with the buffer solution for the receptor binding test to a concentration resulting in 8 to 10 μg/well, suspended until the suspension became in such a homogenous state that the suspension could flow through a 27G injection needle smoothly and then added to the 96-well assay plate at 150 μL/well. Then, the plate was incubated at room temperature for 60 minutes while shaking the plate. […]

The next data set deals with T2, human CYP3A4 (Homo sapiens, UniProt P08684).
T2 construct: purchased BD Biosciences
In words: Inhibitory effect on CYP3A4 (Luciferin-IPA). In kind it is in vitro ADME. The conditions noted are these: test compound 10 μM, 30-minutes pre-incubation, Luciferin-IPA 3 μM. Here is the method:
Inhibitory Effect on CYP3A4
The dimethyl sulfoxide (DMSO) solution of the test compound with a concentration 1000 times higher than the evaluation concentration was prepared, and a reaction solution was prepared by diluting the solution. Enzyme reaction was performed by incubating in a potassium phosphate buffer solution (pH 7.4) containing 1 μM to 10 μM test compound, 3.2 mM magnesium chloride, 0.2 pmol human CYP3A4 (BD Biosciences), 0.5 mM reduced nicotinamide adenine dinucleotide phosphate (NADPH) and 3 μM Luciferin-IPA (Promega) at 37° C. for 10 minutes. The volume of the reaction solution was 50 μL/well. The 30-minutes pre-incubation group was incubated at 37° C. for 30 minutes before adding the substrate, the Luciferin-IPA solution (12.5 μL/well). At the end of the enzyme reaction, 50 μL/well of a Luciferin detection reagent (Promega) was added to the wells, and the plate was left at room temperature for 20 minutes. Then, the emission intensities were measured with Infinite M1000 (TECAN), and the enzyme activities (%) relative to the value of the group to which the test compound was not added. As a comparative example, aprepitant, which is an NK1 receptor antagonist, was tested in the same manner.
Test was measured by the above test method, and the results are shown in Table 9 when the concentration of the test compound was 10 μM. In the table, Ex. No. means the Example number, and Pre-incubation (30 min) (%) means the enzyme activities (%) of the 30-minutes pre-incubation groups using the test compounds.

T1 sequence (P25103 whole entry): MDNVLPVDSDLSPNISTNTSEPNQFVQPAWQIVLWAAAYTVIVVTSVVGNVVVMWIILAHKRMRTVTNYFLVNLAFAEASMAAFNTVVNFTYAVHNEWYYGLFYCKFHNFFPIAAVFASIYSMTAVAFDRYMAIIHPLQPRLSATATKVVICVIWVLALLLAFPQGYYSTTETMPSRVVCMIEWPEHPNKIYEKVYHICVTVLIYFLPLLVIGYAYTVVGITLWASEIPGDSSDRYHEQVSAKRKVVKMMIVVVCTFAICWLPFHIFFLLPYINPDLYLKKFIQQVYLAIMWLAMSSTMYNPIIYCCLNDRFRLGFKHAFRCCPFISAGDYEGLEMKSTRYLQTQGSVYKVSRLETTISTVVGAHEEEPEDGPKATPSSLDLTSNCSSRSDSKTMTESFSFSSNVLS
T2 sequence (P08684 whole entry): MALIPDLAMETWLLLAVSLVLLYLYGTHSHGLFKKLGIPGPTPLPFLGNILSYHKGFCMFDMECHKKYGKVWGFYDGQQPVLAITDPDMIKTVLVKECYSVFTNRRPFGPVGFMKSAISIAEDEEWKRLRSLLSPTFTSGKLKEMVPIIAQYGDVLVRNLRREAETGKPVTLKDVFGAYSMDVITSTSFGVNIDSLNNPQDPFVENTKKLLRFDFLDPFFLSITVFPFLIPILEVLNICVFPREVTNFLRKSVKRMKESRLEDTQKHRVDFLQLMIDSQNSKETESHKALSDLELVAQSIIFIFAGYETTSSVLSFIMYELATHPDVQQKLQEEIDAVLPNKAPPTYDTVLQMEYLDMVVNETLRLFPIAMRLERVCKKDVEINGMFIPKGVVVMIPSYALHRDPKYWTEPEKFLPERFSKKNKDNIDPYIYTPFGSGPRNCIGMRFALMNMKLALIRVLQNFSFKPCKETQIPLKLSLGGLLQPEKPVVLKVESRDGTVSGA

In the case of `Cc1cc(F)ccc1[C@H]1CN(C[C@H]2CC[C@@H](CC(=O)O)CC2)CC[C@@H]1C(=O)N(C)[C@@H](C)c1cc(C(F)(F)F)cc(C(F)(F)F)c1` [Example 13, cis-{4-[(3S,4S)-4-{[(S)-1-(3,5-Bistrifluoromethylphenyl)ethyl]methylcarbamoyl}-3-(4-fluoro-2-methylphenyl)piperidin-1-ylmethyl]cyclohexyl}acetic acid], the remaining activity at 1 µM on human NK1 receptor [1] was determined as 4.1%. Besides, on human NK1 receptor [2], the IC50 was 646 pM. Further, at human CYP3A4, the “Preincubation (30 min) (%) (enzyme activities relative to group without test compound)” value was determined as 18%.
For `Cc1cc(F)ccc1[C@H]1CN(C[C@H]2CC[C@H](CC(=O)O)CC2)CC[C@@H]1C(=O)N(C)[C@@H](C)c1cc(C(F)(F)F)cc(C(F)(F)F)c1` [Example 14, trans-{4-[(3 S,4S)-4-{[(S)-1-(3,5-Bistrifluoromethylphenyl)ethyl]methylcarbamoyl}-3-(4-fluoro-2-methylphenyl)piperidin-1-ylmethyl]cyclohexyl}lacetic acid], in that order: 14%, 1350 pM and 15%.
